Data taken from article PMC8001250 (Biomolecules, 2021).
Values after ≈ are worked out from the molar mass of the structure shown. “Also recorded” adds a separate entry of the source. Read-outs that look alike come from different tables or passages of the source. Non-standard residues stand in square brackets, D forms with d. Residues, ends and D or L forms follow the SMILES beside them. Ala(azulen-1-yl) = N[C@@H](Cc1ccc2cccccc1-2)C(=O)O

Tests used:
[1] = tested on: P. aeruginosa PA-01; assay type: cell-based; conditions: PA-01, 18 h
Experimental: (§1) Bacteria were streaked from frozen glycerol stocks onto LB agar plates (E. coli D31, S. aureus ATCC 35556, P. aeruginosa PA-01, A. baumannii ATCC 19609). The plates were incubated at 37 °C for ~18 h to allow growth. An individual colony from each plate was transferred into individual sterile tubes containing 3 mL of Muller Hinton (MH) broth and subsequently incubated for 18 h with shaking (225 rpm) at 37 °C. An aliquot of this culture was then diluted with fresh MH broth (1:250) and further incubated with shaking (225 rpm) at 37 °C until an OD600 of 0.2–0.4 was reached. This mid-log culture was then diluted to 5 × 10^5 CFU/mL in fresh MH broth. Serially diluted peptides were dispensed in a 96-well plate such that the final concentration in each well would be in the range of 15 µM to 0.234 µM. Then, 90 µL of the freshly diluted culture was transferred to the 96-well plate, yielding a final volume of 100 µL. The 96-well plate was covered and transferred to a humidified incubator at 37 °C for 18 h. The growth and inhibition of bacterial growth were determined by measuring OD600 directly in the plate and comparing to an untreated control. The Minimum Bactericidal Concentration (MBC) was determined by transferring 1 µL of culture from each well of the MIC plate onto fresh LB agar plates and allowed to incubate overnight at 37 °C.

[2] = tested on: A. baumannii ATCC 19609; assay type: cell-based; conditions: ATCC 19609, 18 h
Experimental: as §1

[3] = tested on: S. aureus ATCC 35556; assay type: cell-based; conditions: ATCC 35556, 18 h
Experimental: as §1

[4] = tested on: trypsin; assay: trypsin (50 µL of 0.001 mg/mL solution) in buffer (50 mM sodium phosphate, 100 mM NaCl, pH 7.0); conditions: room temperature, up to 4 hours
[5] = tested on: P. aeruginosa PA-01; conditions: previously reported activity of the parent peptide; ref [30]; cited from earlier work
From the text: Table 2 Bacterial growth inhibition/killing concentration (µM). | column: P. aeruginosa

[6] = tested on: S. aureus ATCC 35556; conditions: previously reported activity of the parent peptide; ref [30]; cited from earlier work
From the text: Table 2 Bacterial growth inhibition/killing concentration (µM). | column: S. aureus

[7] = tested on: A. baumannii ATCC 19609; conditions: previously reported activity of the parent peptide; ref [30]; cited from earlier work
From the text: Table 2 Bacterial growth inhibition/killing concentration (µM). | column: A. baumannii

[8] = tested on: E. coli D31; conditions: previously reported activity of the parent peptide; ref [30]; cited from earlier work
From the text: Table 2 Bacterial growth inhibition/killing concentration (µM). | column: E. coli

| Compound | MBC, P. aeruginosa [1] | MIC, P. aeruginosa [1] | MBC, A. baumannii [2] | MIC, A. baumannii [2] | MBC, S. aureus [3] | MIC, S. aureus [3] | fragment found [4] | MBC, P. aeruginosa [5] | MIC, P. aeruginosa [5] | MBC, S. aureus [6] | MIC, S. aureus [6] | MBC, A. baumannii [7] | MIC, A. baumannii [7] | MBC, E. coli [8] | MIC, E. coli [8] |
| --- | --- | --- | --- | --- | --- | --- | --- | --- | --- | --- | --- | --- | --- | --- | --- |
| CC[C@H](C)[C@H](NC(=O)[C@H](Cc1c[nH]c2ccccc12)NC(=O)[C@@H](NC(=O)[C@H](Cc1ccc2cccccc1-2)NC(=O)[C@@H]1CCCN1C(=O)[C@@H](NC(=O)[C@H](C)N)[C@@H](C)CC)[C@@H](C)CC)C(=O)N[C@@H](Cc1c[nH]c2ccccc12)C(=O)N[C@@H](CCCNC(=N)N)C(=O)N[C@@H](CC(C)C)C(=O)N[C@@H](CC(C)C)C(=O)N[C@@H](CCCNC(=N)N)C(=O)N[C@@H](CCCCN)C(=O)NCC(N)=O [Peptide Z4] (H-AIP[Ala(azulen-1-yl)]IWIWRLLRKG-NH2) | >15 µM | >15 µM | 7.50 µM (≈ 13.6 µg/mL) | 7.50 µM (≈ 13.6 µg/mL) | 7.50 µM (≈ 13.6 µg/mL) | 7.50 µM (≈ 13.6 µg/mL) |  |  |  |  |  |  |  |  |  |
| CC[C@H](C)[C@H](NC(=O)[C@H](Cc1ccc2cccccc1-2)NC(=O)[C@@H](NC(=O)[C@H](Cc1c[nH]c2ccccc12)NC(=O)[C@@H]1CCCN1C(=O)[C@@H](NC(=O)[C@H](C)N)[C@@H](C)CC)[C@@H](C)CC)C(=O)N[C@@H](Cc1c[nH]c2ccccc12)C(=O)N[C@@H](CCCNC(=N)N)C(=O)N[C@@H](CC(C)C)C(=O)N[C@@H](CC(C)C)C(=O)N[C@@H](CCCNC(=N)N)C(=O)N[C@@H](CCCCN)C(=O)NCC(N)=O [Peptide Z6] (H-AIPWI[Ala(azulen-1-yl)]IWRLLRKG-NH2) | >15 µM | >15 µM | 7.50 µM (≈ 13.6 µg/mL) | 3.75 µM (≈ 6.82 µg/mL) | 1.88 µM (≈ 3.42 µg/mL) | 1.88 µM (≈ 3.42 µg/mL) |  |  |  |  |  |  |  |  |  |
| CC[C@H](C)[C@H](NC(=O)[C@H](Cc1c[nH]c2ccccc12)NC(=O)[C@@H](NC(=O)[C@H](Cc1c[nH]c2ccccc12)NC(=O)[C@@H]1CCCN1C(=O)[C@@H](NC(=O)[C@H](C)N)[C@@H](C)CC)[C@@H](C)CC)C(=O)N[C@@H](Cc1ccc2cccccc1-2)C(=O)N[C@@H](CCCNC(=N)N)C(=O)N[C@@H](CC(C)C)C(=O)N[C@@H](CC(C)C)C(=O)N[C@@H](CCCNC(=N)N)C(=O)N[C@@H](CCCCN)C(=O)NCC(N)=O [Peptide Z8] (H-AIPWIWI[Ala(azulen-1-yl)]RLLRKG-NH2) | >15 µM | >15 µM | 7.50 µM (≈ 13.6 µg/mL) | 7.50 µM (≈ 13.6 µg/mL) | 15.00 µM (≈ 27.3 µg/mL) | 7.50 µM (≈ 13.6 µg/mL) |  |  |  |  |  |  |  |  |  |
| AIPWIWIWRLLRKG |  |  |  |  |  |  | AIPWIWIWR; also recorded: AIPWIWIWRLLR |  |  |  |  |  |  |  |  |
| H-AIPWIWIWRLLRKG-NH2 [WWW] |  |  |  |  |  |  |  | >15 µM | 15.00 µM | 3.75 µM | 3.75 µM | 3.75 µM | 3.75 µM | 7.50 µM | 7.50 µM |
